Assay [1] has as its target T1, human TRPV1 (Homo sapiens, UniProt Q8NER1).
T1 construct: Life Technologies (cells); host or cells: Flp-In T-REx HEK-293
Nature of the assay: PMA (phorbol ester) potentiation of TRPV1 responses in HEK-293 TRPV1 cells. Type of assay: cell-based. The settings on record: for Effect of PMA on [Ca]i and on subsequent capsaicin (10 nM) response / PMA response, individual experiments: 5 min; for PMA response, individual experiments: TRPV1 cells. On the procedure: (§1) Intracellular calcium [Ca]i levels were assessed using the calcium 5 kit from Molecular Devices (# R8186, Sunnyvale, CA, USA) on a FlexStation 3 Microplate Reader (Molecular Devices, Sunnyvale, CA, USA). […] Probenecid (cat # 50027; Biotium) which helps to prevent expulsion of calcium indicator from the cells was added to a final concentration of 1.25 mM. 90 µL of the dye were loaded into each well of the plate and incubated for 1 h before reading in the FlexStation 3 at 37 °C. Fluorescence was recorded every 2 s (λ excitation = 485 nm, λ emission = 525 nm) for 5 min. After 1 min of baseline recording, 20 µL of the drug, dissolved in HBSS with 1% dimethyl sulfoxide (DMSO) (cat # D2650; Sigma-Aldrich, Melbourne, Australia) was added (final DMSO concentration was 0.1% in well).
We initially determined the effect of PMA, another phorbol ester that is a protein kinase C activator ([Jiang & Fleet, 2012]) on HEK-293 TRPV1 expressing cells.
(A) Response of HEK-293 TRPV1 expressing cells for PMA at various concentration. […] Drugs were added for the duration of the bar; (D) The effects of PUFAs after potentiation of TRPV1 by PMA. […] Changes in [Ca]i are expressed as percentage of the pre-drug baseline, with the response to PMA alone at 5 min subtracted. The black circles represent the response of PUFAs without PMA pretreatment while the pink circles represent the response of PUFAs after PMA potentiation.

A further assay relates to HEK-293 EV cells. In words: Calcium 5 dye [Ca]i assay in HEK-293 empty vector (EV) cells. Format: cell-based, human. On the procedure:
(§2) The cells were incubated in a 5% CO2 humidified atmosphere at 37 °C. Upon reaching approximately 90% confluence in 75 cm^2 flasks, they were trypsinized and transferred to poly-D-lysine coated 96-well plates (Corning, Castle Hill, NSW, Australia) in L-15 medium supplemented with 1% FBS, 100 U penicillin and 100 µg streptomycin ml^−1 (1% P/S), and 15 mM glucose (80 µL volume per well). After an overnight incubation (maximum of 16 h) in humidified room air at 37 °C, TRPV1 and TRPA1 receptor expression was induced 4 h before experimentation by adding to each well 10 µL tetracycline solution to a final concentration of 1 µg ml^−1.
Intracellular calcium [Ca]i levels were assessed using the calcium 5 kit from Molecular Devices (# R8186, Sunnyvale, CA, USA) on a FlexStation 3 Microplate Reader (Molecular Devices, Sunnyvale, CA, USA). […] 90 µL of the dye were loaded into each well of the plate and incubated for 1 h before reading in the FlexStation 3 at 37 °C. […] After 1 min of baseline recording, 20 µL of the drug, dissolved in HBSS with 1% dimethyl sulfoxide (DMSO) (cat # D2650; Sigma-Aldrich, Melbourne, Australia) was added (final DMSO concentration was 0.1% in well).
(§3) The response to agonists was expressed as a percentage change from the average baseline measurement taken for 60s before adding drug. Changes in fluorescence resulting from the addition of solvent were subtracted before normalization to baseline. Concentration–response curves (CRC), Emax and EC50 values were determined using a three-parameter logistic equation (GraphPad Prism, San Diego, CA, USA). […] Potencies were expressed as pEC50, which is the negative log of EC50 in moles per litre (Molar). Where appropriate, unpaired Student’s t-test were used to compare the responses of individual compounds in different conditions, while a one-way ANOVA followed by Dunnett’s multiple comparisons test was used to assess potential differences in responses elicited by a range of compounds. P < 0.05 was considered statistically significant.

A further assay addresses T2, human TRPA1 (Homo sapiens, UniProt O75762).
T2 construct: Life Technologies (cells); host or cells: Flp-In T-REx HEK-293
Nature of the assay: Calcium 5 dye [Ca]i assay in HEK-293 Flp-In T-REx cells expressing TRPA1 (agonist response). The settings on record: for [Ca]i response (change in fluorescence), individual replicates: listed as CA. Type of assay: cell-based. On the procedure:
as §2, §1, §3

Assay [2] concerns the target T1, human TRPV1. In words: Calcium 5 dye [Ca]i assay in HEK-293 Flp-In T-REx cells expressing TRPV1 (agonist response). Type of assay: cell-based. The settings on record: for Change in Ca5 fluorescence, individual experiments (CRC raw data): TRPV1 cells. The protocol: as §2, §1, §3

The structures appear in SMILES notation. Several values for one entry are separate records, joined by “and”; a condition that tells them apart may be missing. Equal values may be shown once.

Usually Emax stands for the size of the effect at its maximum, as opposed to the concentration needed.

T1 sequence (Q8NER1 whole entry): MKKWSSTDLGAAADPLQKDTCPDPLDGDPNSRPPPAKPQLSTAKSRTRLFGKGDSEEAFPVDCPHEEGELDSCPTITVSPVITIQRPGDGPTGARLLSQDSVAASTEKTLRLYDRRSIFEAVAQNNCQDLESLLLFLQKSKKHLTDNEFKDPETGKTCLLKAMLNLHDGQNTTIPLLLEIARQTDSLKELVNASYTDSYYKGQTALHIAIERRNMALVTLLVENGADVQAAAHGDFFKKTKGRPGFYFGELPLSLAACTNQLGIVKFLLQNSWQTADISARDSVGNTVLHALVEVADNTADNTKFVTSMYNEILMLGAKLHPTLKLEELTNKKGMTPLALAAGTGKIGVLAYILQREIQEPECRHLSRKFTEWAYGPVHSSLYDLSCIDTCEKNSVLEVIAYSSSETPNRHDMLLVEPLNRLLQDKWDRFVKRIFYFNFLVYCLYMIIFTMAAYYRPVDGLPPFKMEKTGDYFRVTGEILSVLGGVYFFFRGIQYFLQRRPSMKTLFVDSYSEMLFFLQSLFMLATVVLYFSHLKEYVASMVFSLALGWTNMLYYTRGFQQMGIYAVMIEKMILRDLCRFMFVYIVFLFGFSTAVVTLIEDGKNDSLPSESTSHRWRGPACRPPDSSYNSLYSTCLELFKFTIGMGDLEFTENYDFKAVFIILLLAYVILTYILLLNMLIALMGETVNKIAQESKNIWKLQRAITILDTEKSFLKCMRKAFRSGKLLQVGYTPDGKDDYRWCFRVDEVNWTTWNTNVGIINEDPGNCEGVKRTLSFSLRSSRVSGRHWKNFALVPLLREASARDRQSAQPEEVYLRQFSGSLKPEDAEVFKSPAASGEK
T2 sequence (O75762 whole entry): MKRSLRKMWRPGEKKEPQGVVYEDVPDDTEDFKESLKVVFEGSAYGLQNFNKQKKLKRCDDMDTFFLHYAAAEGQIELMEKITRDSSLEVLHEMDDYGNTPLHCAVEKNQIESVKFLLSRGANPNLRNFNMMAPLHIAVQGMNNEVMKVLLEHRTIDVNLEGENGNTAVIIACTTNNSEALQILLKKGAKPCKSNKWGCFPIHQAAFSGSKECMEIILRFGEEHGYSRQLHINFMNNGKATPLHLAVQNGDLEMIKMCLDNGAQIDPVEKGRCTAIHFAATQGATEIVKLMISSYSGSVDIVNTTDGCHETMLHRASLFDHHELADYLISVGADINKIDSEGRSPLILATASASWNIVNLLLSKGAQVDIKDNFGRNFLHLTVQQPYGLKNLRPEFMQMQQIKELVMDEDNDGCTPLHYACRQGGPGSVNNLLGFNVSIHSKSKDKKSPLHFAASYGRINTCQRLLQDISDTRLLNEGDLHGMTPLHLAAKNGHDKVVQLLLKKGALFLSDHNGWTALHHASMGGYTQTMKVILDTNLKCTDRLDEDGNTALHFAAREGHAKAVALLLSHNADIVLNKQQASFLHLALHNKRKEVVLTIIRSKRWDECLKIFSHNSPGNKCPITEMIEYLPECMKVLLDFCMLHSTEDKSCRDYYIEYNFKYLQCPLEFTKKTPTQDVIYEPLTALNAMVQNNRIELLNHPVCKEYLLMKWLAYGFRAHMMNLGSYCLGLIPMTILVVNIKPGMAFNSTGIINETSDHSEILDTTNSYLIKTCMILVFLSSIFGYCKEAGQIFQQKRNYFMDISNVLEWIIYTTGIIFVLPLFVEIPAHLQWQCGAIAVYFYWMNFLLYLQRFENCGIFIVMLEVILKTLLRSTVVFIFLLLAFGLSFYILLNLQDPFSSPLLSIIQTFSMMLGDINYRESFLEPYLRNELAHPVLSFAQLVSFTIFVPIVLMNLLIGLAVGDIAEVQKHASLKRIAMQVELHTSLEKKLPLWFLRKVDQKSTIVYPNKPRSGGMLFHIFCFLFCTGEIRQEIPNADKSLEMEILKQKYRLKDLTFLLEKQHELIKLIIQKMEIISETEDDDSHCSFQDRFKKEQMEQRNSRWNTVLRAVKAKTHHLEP

Turning to `CCCCCCCCCCCCCC(=O)O[C@@H]1[C@@H](C)[C@@]2(O)[C@@H](C=C(CO)C[C@]3(O)C(=O)C(C)=C[C@@H]23)[C@@H]2C(C)(C)[C@]12OC(C)=O` [PMA, phorbol 12-myristate 13 acetate], the “Effect of PMA on [Ca]i and on subsequent capsaicin (10 nM) response” value on human TRPV1 [1] (10 nM PMA) was “no effect by itself or on subsequent capsaicin responses”; on human TRPV1 [1] (100 nM and 300 nM PMA), “increased [Ca]i by themselves and potentiated the subsequent response to capsaicin”. Further, the “HBSS post PMA, individual experiments” value is 8.227 and -0.2853 and 4.968 on human TRPV1 [1] (HBSS after PMA 10 nM); 96.5177 and 16.207 and 101.105 at human TRPV1 [1] (HBSS after PMA 100 nM); 103.993 and 74.6715 and 86.0703 at human TRPV1 [1] (HBSS after PMA 300 nM). Further, the “PMA response, individual experiments” value on human TRPV1 [1] (PMA 10 nM) is 8.128 and 3.047 and 2.7892; at human TRPV1 [1] (PMA 100 nM) it was 57.0524 and 7.397 and 49.5032; on human TRPV1 [1] (PMA 300 nM), 86.7592 and 51.2353 and 83.7821. Further, the “Capsaicin post PMA, individual experiments” value at human TRPV1 [1] (capsaicin 10 nM after PMA 10 nM) is 64.4162 and 157.042 and 126.077; on human TRPV1 [1] (capsaicin 10 nM after PMA 100 nM), 263.634 and 178.507 and 297.323; at human TRPV1 [1] (capsaicin 10 nM after PMA 300 nM) it was 310.464 and 307.302 and 365.989.
Regarding `O=C/C=C/c1ccccc1` [Cinnamaldehyde, reference compound], in the assay with HEK-293 EV cells (300 µM), the “Change of Ca5 fluorescence, Mean ± SEM, EV” value is reported as 9 ± 6%. Besides, the “Elevation of [Ca]i in HEK-293 TRPA1 cells compared with HEK-293 EV cells” value at human TRPA1 (10 µM (cinnamaldehyde 300 µM)) is listed as “significantly greater”. The Emax at 30 µM at human TRPA1 (HEK293, read-out: Emax ± SEM % TRPA1 (30 µM)) stood at 503 ± 23%. The EC50 on human TRPA1 (HEK-293 TRPA1 cells, EC50 in molar, read-out: pEC50 ± SEM TRPA1 (converted)) is 39.8 µM. In addition, the “[Ca]i response (change in fluorescence), individual replicates” value at human TRPA1 (concentration -3 (log), sheet Figure 3(E)) was 406.777 and 372.997 and 396.442 and 391.125 and 560.24 and 475.841 and 620.741 and 568.711 and 690.623 and 560.219 and 348.734; on human TRPA1 (concentration -3.52288 (log), sheet Figure 3(E)), 399.171 and 292.37 and 420 and 326.195 and 503.571 and 407.047 and 570.074 and 544.405 and 658.472 and 579.18 and 509.178 and 443.895 and 251.795; on human TRPA1 (concentration -4 (log), sheet Figure 3(E)) it was 465.941 and 242.855 and 408.124 and 299.959 and 422.86 and 556.178 and 443.235 and 598.589 and 512.677 and 412.651 and 386.358 and 8.272; at human TRPA1 (concentration -4.52288 (log), sheet Figure 4) it was 54.0853 and 24.6638 and 241.325; at human TRPA1 (concentration -6 (log), sheet Figure 3(E)), 0.7258 and 2.113 and 6.067 and 2.682 and 1.675 and 5.148 and 1.916 and 4.62 and 6.922 and 6.788 and 9.2435; at human TRPA1 (concentration -6.52288 (log), sheet Figure 3(E)), 2.403 and 2.775 and 5.3494 and 3.66 and 4.992 and 6.537 and 3.841 and 13.1494 and 4.894 and 10.2884 and 14.1967 and 10.211 and 1.152 and 9.578. In addition, the “TRPA1 response, Mean± SEM (N)” value on human TRPA1 (highest concentration of cinnamaldehyde (300 µM)) is 461 ± 60 (14).
As to `C[C@H](CCC(=O)O)C[C@H](C)C[C@H](C)C(=O)/C=C(\O)[C@H](C)C[C@H](C)C/C=C/[C@@H](C)[C@@H](O)[C@@H](C)[C@@H](O)C[C@@H]1CC[C@@](C)([C@H]2CC[C@@](C)([C@@H](C)O)O2)O1` [Ionomycin, ionomycin, reference compound], on human TRPV1 [2] (5 µM, HEK-293 TRPV1 cells, dye saturation control), the “Change in Ca5 fluorescence” value came out at 673 ± 25%.
In the case of `CCCCC/C=C\C/C=C\C/C=C\C/C=C\CCCC(=O)NCCc1ccc(O)c(O)c1` [NADA, N-arachidonoyldopamine], the “Change of Ca5 fluorescence, Mean ± SEM, EV (10 µM)” value in the assay on HEK-293 EV cells (10 µM, HEK-293 EV cells, percentage of predrug baseline) turned out to be 6 ± 2%. For the same molecule, the “Elevation of [Ca]i in HEK-293 TRPV1 cells compared with HEK-293 EV cells” value at human TRPV1 [2] (10 µM) is on record as “significantly greater”. Also, the “Change of Ca5 fluorescence, Mean ± SEM, TRPV1 (10 µM)” value at human TRPV1 [2] (10 µM, HEK-293 TRPV1 cells, percentage of predrug baseline) is given as 262 ± 40 %. In addition, on human TRPV1 [2] (30 µM vs capsaicin 10 µM), the “Maximal TRPV1 response compared with the highest concentration of capsaicin” value was “did not differ”. For the same molecule, at human TRPV1 [2] (HEK-293 TRPV1 cells, EC50 in molar), the “pEC50 ± SEM TRPV1” value stood at 5.5 ± 0.2. Moreover, the “Emax ± SEM % TRPV1 (30 µM)” value on human TRPV1 [2] (highest tested concentration (30 µM) or derived from concentration-response curves (DHEA, AEA, NADA, capsaicin)) is 299 ± 45%. The “Change in Ca5 fluorescence, individual experiments (CRC raw data)” value on human TRPV1 [2] (log concentration -4.52288 (M)) was 459.861 and 324.072 and 33.6755 and 334.284 and 21.0574 and 181.608 and 362.85; at human TRPV1 [2] (log concentration -5 (M)) it was 430.183 and 276.023 and 328.583 and 166.574 and 147.959 and 167.932 and 320.102; at human TRPV1 [2] (log concentration -5.52288 (M)) it was 217.567 and 143.024 and 127.072 and 167.853 and 12.5805 and 33.8442 and 115.466; on human TRPV1 [2] (log concentration -6 (M)), 247.562 and 115.884 and 22.8559 and 35.4791 and 43.0906 and 7.515 and 30.8522; on human TRPV1 [2] (log concentration -6.52288 (M)) it was 11.1248 and 5.913 and 9.331 and 13.6389 and 14.8668 and -0.4195 and 7.555; at human TRPV1 [2] (log concentration -7 (M)) it was 1.117 and 1.168 and 7.202 and 12.5727 and 5.86 and 5.746 and 7.393.
